Here are results for two molecules from ChEMBL document CHEMBL4823252 (J Med Chem, 2021).

Activity calls are given as the source filed them. The calls are words filed in the database; no cut-off is given here.

Data set [1] relates to MV4-11. As to the kind of experiment: Antitumor activity against human MV4-11 cells xenografted in mouse assessed as tumor growth inhibition at 5 mg/kg, po administered for 20 days measured once every 2 days relative to control. The format is functional. Conditions: MV4-11, po, 480 h, time 20 day, read-out: TGI.
Data set [2] can be described thus: Toxicity in mouse xenografted with human MV4-11 cells assessed as effect on liver at 2.5 to 10 mg/kg, po administered for 16 days by hematoxylin and eosin staining assay. Format: organism-based. The following applies: in vivo, 384 h, dose 2.5-10 mg/kg, time 16 day. In general terms: Xenograft models place foreign cells or tissue in a host animal.
For data set [3], the target named is Receptor-type tyrosine-protein kinase FLT3 (Homo sapiens) (UniProt P36888). Description: Inhibition of FLT3 in human MV4-11 cells assessed as reduction in STAT5 phosphorylation at 10 uM incubated for 2 hrs by Western blot analysis. The format is cell-based. (In western blotting, separated proteins are transferred to a membrane and probed.)
Data set [4] has as its system Receptor-type tyrosine-protein kinase FLT3 (Homo sapiens), P36888 [R834Q]. As to the kind of experiment: Binding affinity to FLT3 R834Q mutant (unknown origin) at 1000 nM relative to control.
Data set [5] can be described thus: Toxicity in mouse xenografted with human MOLM-13 cells assessed as effect on kidney at 10 to 40 mg/kg, po administered for 20 days by hematoxylin and eosin staining assay. The following applies: in vivo, 480 h, dose 10-40 mg/kg, time 20 day. The format is organism-based.
Data set [6] in a line: MRT (0 to last) in Sprague-Dawley rat at 10 mg/kg, po. The format is ADME, organism-based. Conditions: in vivo.
Data set [7] in a line: Cmax in Sprague-Dawley rat at 10 mg/kg, po. Format: ADME, organism-based. On the set-up: route oral, dose 10 mg/kg. The following applies: in vivo.
For data set [8], the system named is MV4-11. Description: Induction of apoptosis in human MV4-11 cells assessed as late apoptotic cells at 100 nM incubated for 24 hrs by flow cytometry (reference value: 0.58%). The format is functional. (A flow cytometer gives signals particle by particle.)
The nature of data set [9]: Toxicity in mouse xenografted with human MV4-11 cells assessed as effect on spleen at 2.5 to 10 mg/kg, po administered for 16 days by hematoxylin and eosin staining assay. The following applies: in vivo, 384 h, dose 2.5-10 mg/kg, time 16 day. Format: organism-based.
Data set [10] can be described thus: Toxicity in mouse xenografted with human MV4-11 cells assessed as effect on lung at 2.5 to 10 mg/kg, po administered for 16 days by hematoxylin and eosin staining assay. The format is organism-based. The following applies: in vivo, 384 h, dose 2.5-10 mg/kg, time 16 day.
Data set [11] has as its target Vascular endothelial growth factor receptor 2 (Homo sapiens, UniProt P35968). As to the kind of experiment: Inhibition of VEGFR2 (unknown origin) incubated for 30 mins in presence of ATP by mobility shift assay.
The subject of data set [12] is MOLM-13. As to the kind of experiment: Induction of cell cycle arrest in human MOLM-13 cells assessed as accumulation at S phase at 100 nM incubated for 24 hrs by flow cytometry (reference value: 16.28%). The format is functional.
The target of data set [13] is T1, Receptor-type tyrosine-protein kinase FLT3 (Homo sapiens, UniProt P36888).
T1 sequence (P36888 whole entry): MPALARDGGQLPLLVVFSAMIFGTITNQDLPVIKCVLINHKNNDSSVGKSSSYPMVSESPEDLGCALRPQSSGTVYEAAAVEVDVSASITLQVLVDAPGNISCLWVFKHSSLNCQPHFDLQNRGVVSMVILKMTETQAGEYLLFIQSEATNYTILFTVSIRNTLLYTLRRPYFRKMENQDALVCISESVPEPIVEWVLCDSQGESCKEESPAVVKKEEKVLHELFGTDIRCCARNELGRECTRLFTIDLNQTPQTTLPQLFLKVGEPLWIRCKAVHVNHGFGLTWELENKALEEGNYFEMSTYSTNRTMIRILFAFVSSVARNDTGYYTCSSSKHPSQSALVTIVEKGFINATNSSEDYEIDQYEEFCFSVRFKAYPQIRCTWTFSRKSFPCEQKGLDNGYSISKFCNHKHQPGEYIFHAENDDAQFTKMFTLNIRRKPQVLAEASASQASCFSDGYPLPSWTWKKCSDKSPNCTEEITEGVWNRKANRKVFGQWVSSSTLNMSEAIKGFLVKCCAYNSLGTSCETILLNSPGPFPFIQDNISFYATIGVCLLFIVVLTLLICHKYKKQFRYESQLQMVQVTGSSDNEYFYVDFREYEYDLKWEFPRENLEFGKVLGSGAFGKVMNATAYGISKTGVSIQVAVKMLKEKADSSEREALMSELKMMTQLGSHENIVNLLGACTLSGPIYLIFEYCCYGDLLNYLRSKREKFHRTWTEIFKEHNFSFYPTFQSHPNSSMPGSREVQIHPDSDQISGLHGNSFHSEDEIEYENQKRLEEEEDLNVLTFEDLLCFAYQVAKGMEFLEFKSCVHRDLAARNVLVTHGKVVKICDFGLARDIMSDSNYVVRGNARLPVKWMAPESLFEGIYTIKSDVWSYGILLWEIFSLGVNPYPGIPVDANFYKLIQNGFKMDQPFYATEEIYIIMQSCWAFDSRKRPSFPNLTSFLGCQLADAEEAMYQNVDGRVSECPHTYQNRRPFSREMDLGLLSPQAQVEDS
As to the kind of experiment: Inhibition of FLT3 (unknown origin) incubated for 30 mins in presence of ATP by mobility shift assay.

Data set [14] relates to MOLM-13. Description: Antiproliferative activity against human sunitinib-resistant MOLM-13 cells at 12 nM incubated for 72 hrs by CCK8 assay relative to control. Format: functional.
Data set [15] concerns MV4-11. Description: Antitumor activity against human MV4-11 cells xenografted in mouse assessed as tumor growth inhibition at 10 mg/kg, po administered for 20 days measured once every 2 days relative to control. The format is functional. Conditions: MV4-11, po, 480 h, time 20 day, read-out: TGI.
The target of data set [16] is Receptor-type tyrosine-protein kinase FLT3 (Homo sapiens) (UniProt P36888). Description: Inhibition of FLT3 in human MV4-11 cells assessed as reduction in autophosphorylation at tyr589/591 residue incubated for 2 hrs by Western blot analysis. Format: cell-based.
The test system of a further data set is Mus musculus. As to the kind of experiment: Induction of tumor recurrence mouse xenografted with human MOLM-13 cells at 10 to 40 mg/kg, po. Format: functional, organism-based. The following applies: dose 10-40 mg/kg.
Data set [17] concerns MOLM-13. As to the kind of experiment: Induction of apoptosis in human MOLM-13 cells assessed as viable cells at 10 nM incubated for 24 hrs by flow cytometry (reference value: 92.83%). Format: functional. Conditions: read-out: Activity.
Data set [18] can be described thus: AUC (0 to last) in Sprague-Dawley rat at 10 mg/kg, po. The format is ADME, organism-based. On the set-up: route oral, time 0 - last, dose 10 mg/kg. The following applies: in vivo.
In data set [19] the target is Platelet-derived growth factor receptor beta (Homo sapiens, UniProt P09619). As to the kind of experiment: Inhibition of PDGFRbeta (unknown origin) incubated for 30 mins in presence of ATP by mobility shift assay.
Platelet-derived growth factor receptor beta, sequence (P09619 whole entry): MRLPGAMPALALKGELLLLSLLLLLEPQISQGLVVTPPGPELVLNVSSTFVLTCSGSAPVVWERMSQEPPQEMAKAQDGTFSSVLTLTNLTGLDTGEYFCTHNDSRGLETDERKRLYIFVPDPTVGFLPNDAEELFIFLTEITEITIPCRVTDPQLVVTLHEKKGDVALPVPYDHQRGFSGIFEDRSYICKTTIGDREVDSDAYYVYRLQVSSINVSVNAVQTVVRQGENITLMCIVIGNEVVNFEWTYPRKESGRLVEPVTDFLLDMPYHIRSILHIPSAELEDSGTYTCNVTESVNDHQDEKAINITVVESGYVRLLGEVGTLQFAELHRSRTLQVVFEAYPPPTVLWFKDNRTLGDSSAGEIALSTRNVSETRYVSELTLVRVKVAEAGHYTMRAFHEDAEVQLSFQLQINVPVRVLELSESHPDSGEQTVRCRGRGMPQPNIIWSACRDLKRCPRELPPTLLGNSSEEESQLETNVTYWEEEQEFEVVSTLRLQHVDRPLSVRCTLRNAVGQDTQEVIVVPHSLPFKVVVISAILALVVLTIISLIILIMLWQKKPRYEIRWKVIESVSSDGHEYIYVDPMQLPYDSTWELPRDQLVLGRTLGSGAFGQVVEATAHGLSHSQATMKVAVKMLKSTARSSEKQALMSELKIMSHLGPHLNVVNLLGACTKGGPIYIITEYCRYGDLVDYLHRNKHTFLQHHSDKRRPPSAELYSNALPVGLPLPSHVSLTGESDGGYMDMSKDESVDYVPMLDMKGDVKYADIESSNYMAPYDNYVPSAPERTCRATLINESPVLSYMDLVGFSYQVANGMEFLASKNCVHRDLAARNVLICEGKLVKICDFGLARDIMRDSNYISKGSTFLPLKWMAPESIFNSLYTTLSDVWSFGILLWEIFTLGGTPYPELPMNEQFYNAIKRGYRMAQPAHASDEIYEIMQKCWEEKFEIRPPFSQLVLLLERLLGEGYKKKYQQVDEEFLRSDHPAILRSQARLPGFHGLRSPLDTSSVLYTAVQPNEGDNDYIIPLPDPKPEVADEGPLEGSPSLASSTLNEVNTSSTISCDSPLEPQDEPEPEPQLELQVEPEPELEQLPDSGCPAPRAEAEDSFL
Data set [20] deals with MOLM-13. As to the kind of experiment: Antitumor activity against human MOLM-13 cells xenografted in mouse assessed as tumor regression at 40 mg/kg, po administered for 16 days measured on day 4 relative to control. The format is functional. Conditions: time 16 day.
The next data set deals with HCT-116. Description: Antiproliferative activity against human HCT116 cells measured after 72 hrs by CCK8 assay. The format is functional, cell-based. Conditions: HCT-116, 72 h.
The subject of data set [21] is MOLM-13. As to the kind of experiment: Antitumor activity against human MOLM-13 cells xenografted in po dosed mouse assessed as inhibition of tumor cell proliferation administered for 16 days measured once for every 2 days by Ki67 staining based immunohistochemical analysis. Format: functional, organism-based. Conditions: time 16.0 day.
Data set [22] is described as follows: Half life in Sprague-Dawley rat at 10 mg/kg, po. Conditions: in vivo. The format is ADME, organism-based.
The subject of data set [23] is MOLM-13. Description: Induction of cell cycle arrest in human MOLM-13 cells assessed as accumulation at G2/M phase at 10 nM incubated for 24 hrs by flow cytometry (reference value: […]). The format is functional.
The nature of data set [24]: Tmax in Sprague-Dawley rat at 10 mg/kg, po. Format: ADME, organism-based. The following applies: in vivo.
The next data set is filed under the species Homo sapiens. Description: Binding affinity to FLT3 ITD D835V mutant (unknown origin) at 1000 nM relative to control.

The term MRT last denotes a mean duration of stay, worked out from the concentration-time curve. For orientation: Cmax means the peak of the concentration-time curve. The term IC50 denotes the concentration that gives 50% inhibition. Broadly, the AUC(0-t) is the area under the concentration-time curve up to a stated or last time point. A low value points to low exposure. Usually half-life stands for the time in which the quantity being followed falls by half. Usually Tmax stands for the time at which the peak concentration occurs.

Vascular endothelial growth factor receptor 2, sequence (P35968 whole entry): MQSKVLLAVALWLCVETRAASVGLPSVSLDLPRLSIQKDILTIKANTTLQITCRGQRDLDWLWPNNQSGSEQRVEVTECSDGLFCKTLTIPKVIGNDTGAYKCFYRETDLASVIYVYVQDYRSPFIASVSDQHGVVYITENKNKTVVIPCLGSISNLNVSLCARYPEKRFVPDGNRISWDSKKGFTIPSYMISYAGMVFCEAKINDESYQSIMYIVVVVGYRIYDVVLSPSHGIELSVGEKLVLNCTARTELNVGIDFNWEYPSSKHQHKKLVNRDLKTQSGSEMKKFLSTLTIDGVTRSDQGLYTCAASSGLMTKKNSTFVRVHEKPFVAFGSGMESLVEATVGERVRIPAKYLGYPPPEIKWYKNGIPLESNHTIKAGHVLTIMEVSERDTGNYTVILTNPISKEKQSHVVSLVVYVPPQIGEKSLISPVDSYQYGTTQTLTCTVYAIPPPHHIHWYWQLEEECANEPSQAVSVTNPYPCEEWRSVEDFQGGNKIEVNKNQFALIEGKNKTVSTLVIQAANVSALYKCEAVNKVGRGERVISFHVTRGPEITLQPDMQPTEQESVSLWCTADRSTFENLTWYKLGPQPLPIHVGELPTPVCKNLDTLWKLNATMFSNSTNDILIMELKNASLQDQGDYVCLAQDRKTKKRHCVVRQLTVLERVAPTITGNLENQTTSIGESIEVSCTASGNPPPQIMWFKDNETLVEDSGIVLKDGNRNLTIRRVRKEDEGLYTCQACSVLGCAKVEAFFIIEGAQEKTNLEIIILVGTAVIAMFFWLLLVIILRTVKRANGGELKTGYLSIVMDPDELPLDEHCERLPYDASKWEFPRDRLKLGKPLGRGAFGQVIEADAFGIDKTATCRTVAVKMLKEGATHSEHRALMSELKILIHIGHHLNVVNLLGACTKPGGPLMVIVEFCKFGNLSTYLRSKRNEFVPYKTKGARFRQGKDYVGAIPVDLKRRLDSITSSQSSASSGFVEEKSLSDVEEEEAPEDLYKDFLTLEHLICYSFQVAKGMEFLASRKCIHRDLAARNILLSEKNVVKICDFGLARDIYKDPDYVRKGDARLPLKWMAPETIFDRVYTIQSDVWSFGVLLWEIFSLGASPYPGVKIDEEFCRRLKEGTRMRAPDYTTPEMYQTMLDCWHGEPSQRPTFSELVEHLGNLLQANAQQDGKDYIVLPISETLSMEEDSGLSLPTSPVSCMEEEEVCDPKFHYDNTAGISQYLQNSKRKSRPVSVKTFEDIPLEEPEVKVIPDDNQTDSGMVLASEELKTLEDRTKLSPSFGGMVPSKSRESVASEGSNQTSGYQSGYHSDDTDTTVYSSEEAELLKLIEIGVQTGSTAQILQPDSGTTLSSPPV

For the molecule `CCN(CC)CCNC(=O)c1c(C)[nH]c(/C=C2\C(=O)Nc3ccc(F)cc32)c1C` [SUNITINIB], in the data set with MV4-11 [1], the inhibition in vivo at 5 mg/kg was 29.9%.

On to `Cc1c(NC(=O)CCN2CCCC2)c[nH]c1/C=C1\C(=O)Nc2ccc(F)cc21`, for which the Activity entry was “Non-Toxic” in data set [2]; “Non-Toxic” in [5]; 8.73% in the data set on MV4-11 [8]; “Non-Toxic” in data set [9]; “Non-Toxic” in data set [10]; 4.16% in the data set with MOLM-13 [12]. Further, the Activity in the data set with MOLM-13 [14] was -2.6%; in data set [16] it was “Dose-Dependent Effect”; in the data set on MOLM-13 [20] it was 100%; in the data set with MOLM-13 [21] it was “Dose-Dependent Effect”; with MOLM-13 [23] it was 2.32%. Besides, the result (in [3]; in [4]; in the data set listed under Homo sapiens) was Active. The molecule further yielded a mean residence time MRT last in data set [6] of 6.6 h. The Cmax in [7] was found to be 1.88 µg/mL. Also, the IC50 was determined as 0.137 µM in data set [11], 0.0018 µM in [13], 0.0418 µM in [19] and 3.98 µM with HCT-116. Also, the inhibition in vivo at 10 mg/kg with MV4-11 [15] turned out to be 93.4%. Further, the result in the data set on Mus musculus was inactive. For the same molecule, the viability at 0.01 µM in the data set with MOLM-13 [17] came to 62.3%. Also, in data set [18], the AUC(0-t) came to 21.2 µg·h/mL. The molecule further had a half-life in [22] of 6.1 h. Besides, in data set [24], the Tmax came out at 2.7 h.
